The values that follow are results of earlier work, collected in patent publication US20250339514A1, “SINGLE-AND MULTI-EPITOPE PEPTIDE AND MRNA VACCINES TO GENERATE TOLEROGENIC EFFECTS FOR ALLERGIC AND AUTOIMMUNE DISEASE BY TARGETING LIVER SINUSOIDAL ENDOTHELIAL CELLS” (The Regents of the University of California, priority 2022, published 2025).

The test system of one data set is lupus-prone mice. As to conditions: subcutaneous every 2 weeks; cited from earlier work.
The test system of the next data set is MRL/lpr mice. The conditions noted are these: repeated administration; cited from earlier work.
A further data set has as its system lupus patients. As to conditions: Phase 1 and Phase 2 clinical trials; cited from earlier work.
The next data set relates to C57BL/6J mice. The conditions noted are these: inhalation of low peptide concentrations, naïve C57BL/6J mice; cited from earlier work.
The test system of a further data set is human T-cell lines. As to conditions: T-cell lines isolated from 10 different donors; cited from earlier work.

Take “H4 aa 71-94: nucleosomal histone H4 peptide autoepitope”: in the data set on lupus-prone mice, the efficacy of autoepitope result is “most effective autoepitope”.
In the case of RIHMVYSKRpSGKPRGYAFIEY [P140], the “T-cell epitope spreading to other U1-70K regions” value with MRL/lpr mice was “transiently abolishing T-cell epitope spreading”. In addition, the clinical efficacy entry in the data set with lupus patients is “effective in treating lupus patients”.
For “Der p1 T-cell epitope (residues 111-139): major Der p1 T-cell epitope peptide (Hoyne et al.) (FGISNYCQIYPPNVNKIREALAQTHSAIA; UniProt P08176 209-237, looked up, fragment)”, the tolerance induction entry in the data set on C57BL/6J mice was “capable of inducing tolerance”.
Regarding “AH96-110: adalimumab HCDR3 peptide (CAKVSYLSTASSLDY; listed as Homo sapiens)”, the “recognition by T-cell lines” value in the data set with human T-cell lines is reported as “recognized by the majority of T-cell lines”.
With AH91-110: adalimumab HCDR3 peptide, the “recognition by T-cell lines” value with human T-cell lines was “recognized by the majority of T-cell lines”.
